From PMC8646019, “Azvudine is a thymus-homing anti-SARS-CoV-2 drug effective in treating COVID-19 patients” (Signal Transduction and Targeted Therapy, 2021)

Columns and labels:
viral replication = conditions: FNC compound itself, not phosphorylated; cited from earlier work
PBMC = format: in vivo, rhesus macaques; conditions: n = 4 for each group, with time, vs untreated
SARS-CoV-2 = SARS-CoV-2 infected rhesus macaques treated with FNC (viral load, blood tests, histology, X-ray); format: in vivo
Description: RM monkeys were used to learn whether FNC could inhibit SARS-CoV-2 in vivo. In this experiment, eight monkeys were first infected with SARS-CoV-2 using the protocol established previously with an infection dose of 10^6 pfu per monkey.[18] Among the eight animals, four were untreated (as vehicle control; two male and two female) and four were treated with FNC (0.07 mg/kg, qd, oral; two male and two female) 12 h post-infection. The treatment continued for 7 days from Day 1 to Day 7. The experiment was terminated on Day 8 after viral infection. Clinical manifestations, blood indications, and viral load in swabs and blood samples was monitored during the course, and organs were examined after euthanasia at 8 dpi. The experimental protocol is shown in Supplementary Fig. 5.
Fig. 3 FNC inhibited SARS-CoV-2 and treated COVID-19 in vivo. Eight RM monkeys were inoculated with SARS-CoV-2, followed by vehicle or FNC treatment 12 h post infection and continued for 7 days (see Materials and methods). […] The regions of interest (ROI) are boxed in white, and their magnified photos are shown below. Scale bars, 500 µm (up) and 20 µm (below). c White blood cells (WBC), neutrophil granulocytes (NG), monocytes (MC), and platelets basically remained stable by FNC after SARS-CoV-2 infection. d FNC increased the percent of lymphocytes, alleviated CRP production, and protected the heart and liver functions. Data are presented as mean ± SEM (n = 4); *p < 0.05, infected monkeys in FNC group vs. infected monkeys in the untreated group, by Mann–Whitney U test. CRP C reaction protein, AST aspartate aminotransferase TEXT PRINTED IN THE PICTURE: (a) FNC: Lung Viral load (copies /g): ND (17031); Lung Viral load (copies /g): ND (17374); Thymus Viral load (copies /g): ND (17017); Thymus Viral load (copies /g): ND (17031); Thymus Viral load (copies /g): ND (17368); Thymus Viral load (copies /g): ND (17374) DOUBTS OF THE COPYIST ABOUT THIS PICTURE: Panel a: the only printed results are "ND" labels over single animal numbers. The red ones (FNC group) are given. The black ND labels of the untreated group (Lung 17032; Thymus 17032, 17041) are left out because no substance was given. / Panel d: 0.083 printed in the CRP and AST plots is taken as a p value and left out.
The rhesus macaques’ experiment was done by following the method described before^1,2. Briefly, healthy rhesus macaques (4 male and 4 female, 3-4 years old) were used for the study. SARS-CoV-2 was from the Center of Diseases Control, Guangdong, China, and amplified in the Vero-E6 cells. Animal groups and experimental schedules were outlined in Fig S4. We inoculated rhesus macaques with 10^6 pfu/ml SARS-CoV-2 intratracheally (0.5ml) and intranasally (0.5ml). FNC (0.07mg/kg, qd, orally) was given 12 h after viral inoculation and continued for 7 days. The animals were monitored daily for physical examination. Chest X-ray radiograph of the anaesthetized monkeys was done with 55-75v and 8-12.5mA with the Mobile digital medical X-ray photography system (MobileCooper, Browiner China).
Quantification of viral genome in swabs and tissue samples was done as described before^1. Viral genome copy in samples were quantified with real time RT-PCR, using TaqMan Fast Virus 1-Step Master Mix (ThermoFisher, US) and conducted on the CFX384 Touch Real-Time PCR Detection System (Biorad, US). Purified RNA of SARS-CoV-2 served as a standard curve. The operation conditions of RT-PCR were set as following: 25℃ for 2min, 50℃ for 15min, 95℃ for 2min, then 40 cycles at 95℃ 5sec and 60℃ 31sec. Primers/probe specific for the NP gene were synthesized based on sequences from China CDC: Target-2-F:GGGGAA […],
By the end of the experiment, major organs of the monkeys were taken and checked with naked eye examination. Tests for blood biochemistry and hematology indexes, including lymphocyte analysis and organ function assays, were done based on previous reports^1,2. […]

[1] = FNC-treated monkeys vs untreated

[N-]=[N+]=N[C@]1(CO)O[C@@H](n2ccc(N)nc2=O)[C@@H](F)[C@@H]1O [FNC, 2′-deoxy-2′-β-fluoro-4′-azidocytidine]
inhibiting viral replication in vitro (viral replication): almost inactive | percentage of CD3+, CD4+, and CD8+ cells in the peripheral blood (PBMC): increased | CK and AST levels (SARS-CoV-2; [1]): decreased CK and AST levels, though insignificantly | body temperature and body weight changes after SARS-CoV-2 infection (SARS-CoV-2; [1]): not different | lesions in the lung (HE staining) (SARS-CoV-2; RM monkeys, FNC 0.07 mg/kg qd oral vs untreated): reduced the lesions substantially | viral load in nasal swabs, blood, lungs and thymus (SARS-CoV-2; RM monkeys, FNC 0.07 mg/kg qd oral, 7 days, vs untreated): significantly reduced viral load | ground-glass opacities in chest X-ray (SARS-CoV-2; RM monkeys, FNC 0.07 mg/kg, qd, orally): lessened ground-glass opacities | viral load in the thymus (SARS-CoV-2; four virus (+) monkeys treated with FNC, termination of the experiment): negative
